Assay results published in US20250281607A1, “MEDICAMENT FOR TREATMENT AND/OR PREVENTION OF CANCER” (TORAY INDUSTRIES, INC., priority 2021, published 2025).

Assays:
[1] = system: colon cancer cell line HCT116; assay: THP-1-mediated phagocytic activity against HCT116 (Examples 3 to 6); format: cell-based, human; conditions: cells cultured 2 days with drug at 10 μM, then anti-CAPRIN-1 humanized antibody #1 1 μg/mL
Protocol: Specifically, in each RAS inhibitor combination test group, the indicated drug used in combination was applied to human cancer cells, and then the cancer cells were cocultured with human monocytic cells (THP-1) in the presence of the anti-CAPRIN-1 antibody, and the antibody-mediated phagocytic activity against the cancer cells by THP-1 was evaluated.
The human-derived cancer cells used were a colon cancer cell line HCT116. On a 6-well plate, the human-derived cancer cells were cultured for 2 days in the presence of the indicated drug used in combination in the lonafarnib combination test group, the sotorasib combination test group and the salirasib combination test group. […]
Each cancer cell line after the culture was dissociated with TrypLE Express (Thermo), and the cancer cells were stained by the addition of calcein-AM at a final concentration of 0.04 μg/mL and incubation at 37° C. for 10 minutes. […] Further, dead cells were stained with propidium iodide (PI) (final concentration: 0.1 μg/mL), followed by the measurement of fluorescence from the cells by flow cytometry. […] Thus, the phagocytic activity in this evaluation system was calculated as the ratio (%) of APC-positive/calcein-AM-positive cells to the whole calcein-AM-positive population. […]

[2] = system: colon cancer cell line HCT116; assay: THP-1-mediated phagocytic activity against HCT116 (Example 2); format: cell-based, human; conditions: then anti-CAPRIN-1 humanized antibody #1 5 μg/mL, FIG. 2
Protocol: Specifically, in each combination test group (a trametinib combination test group, a fluorouracil combination test group and an irinotecan combination test group), the indicated drug used in combination was applied to human cancer cells, and then the cancer cells were cocultured with human monocytic cells (THP-1) in the presence of the anti-CAPRIN-1 antibody, and the antibody-mediated phagocytic activity against the cancer cells by THP-1 was evaluated. The human-derived cancer cells used were melanoma cell line A375 (used only in the trametinib combination test group), colon cancer cell line HCT116, prostate cancer cell line DU145 (used only in the trametinib combination test group), and lung cancer cell line A549 (used only in the trametinib combination test group). On a 6-well plate, the human-derived cancer cells were cultured for 2 days in the presence of trametinib for the trametinib combination test group, and cultured for 2 days in the presence of the each drug used in combination for the fluorouracil combination test group and the irinotecan combination test group. The concentration of the drug used in combination was set to a concentration that decreased the proliferation rate of the cancer cells by about half at the completion of culture. […]
Each cancer cell line after the culture was dissociated with TrypLE Express (Thermo), and the cancer cells were stained by the addition of calcein-AM at a final concentration of 0.02 μg/mL and incubation at 37° C. for 30 minutes. […] Further, dead cells were stained with propidium iodide (PI) (final concentration: 0.1 μg/mL), followed by the measurement of fluorescence from the cells by flow cytometry. […] Thus, the phagocytic activity in this evaluation system was calculated as the ratio (%) of APC-positive/calcein-AM-positive cells to the whole calcein-AM-positive population.

[3] = molecular target: T1, CAPRIN-1 protein (Homo sapiens, UniProt Q14444); assay: ELISA reactivity with CAPRIN-1 protein immobilized on a plate; format: binding
T1 construct: made in house
T1 sequence (Q14444 1-709): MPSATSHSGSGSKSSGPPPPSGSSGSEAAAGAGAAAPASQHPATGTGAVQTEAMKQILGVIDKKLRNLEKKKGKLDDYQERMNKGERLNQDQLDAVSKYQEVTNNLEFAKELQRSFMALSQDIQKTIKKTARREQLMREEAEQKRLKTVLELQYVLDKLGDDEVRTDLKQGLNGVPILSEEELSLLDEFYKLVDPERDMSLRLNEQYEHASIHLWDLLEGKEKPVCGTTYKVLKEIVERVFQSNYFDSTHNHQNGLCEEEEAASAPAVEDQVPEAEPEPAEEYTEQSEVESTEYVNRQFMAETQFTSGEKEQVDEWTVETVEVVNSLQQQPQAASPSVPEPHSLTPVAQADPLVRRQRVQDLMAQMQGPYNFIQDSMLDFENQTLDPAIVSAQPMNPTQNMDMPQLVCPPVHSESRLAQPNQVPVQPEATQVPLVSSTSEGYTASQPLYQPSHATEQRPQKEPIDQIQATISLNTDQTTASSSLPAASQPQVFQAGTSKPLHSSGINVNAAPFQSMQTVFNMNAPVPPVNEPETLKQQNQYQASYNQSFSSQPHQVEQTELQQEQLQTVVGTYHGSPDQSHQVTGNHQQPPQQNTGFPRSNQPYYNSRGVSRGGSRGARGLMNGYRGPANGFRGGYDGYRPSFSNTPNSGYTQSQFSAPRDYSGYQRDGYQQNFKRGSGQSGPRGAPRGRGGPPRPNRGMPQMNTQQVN
Protocol: One hundred (100) μg of a human CAPRIN-1 recombinant protein produced according to Example 3 of WO2010/016526 was mixed with a MPL+TDM adjuvant (Sigma) in an amount equivalent to that of the recombinant protein. The mixture was used as an antigen solution per mouse. The antigen solution was administered intraperitoneally to 6-week-old Balb/c mice (Japan SLC Inc.) and then further administered 3 times […] every week for completion of immunization. A spleen was removed on day 3 after the final immunization and then ground between two sterilized glass slides. Spleen cells were obtained by repeating the following procedure three times: washing with PBS (-) (Nissui Corporation), centrifuging at 1500 rpm for 10 minutes, and removing supernatant. The obtained spleen cells were mixed with mouse myeloma cell SP2/0 (purchased from ATCC) at a ratio of 10:1. The PEG solution prepared by mixing 200 μl of RPMI1640 medium containing 10% FBS heated at 37° C. and 800 μl of PEG1500 (Boehringer) was added to the cells. The solution was incubated for 5 minutes for cell fusion. Centrifugation was performed at 1700 rpm for 5 minutes to remove supernatants. […] Absorbance at 450 nm and absorbance at 595 nm were measured using an absorption spectrometer. As a result, a plurality of hybridomas producing antibodies with high absorbances were selected. […]

Molecule: O=C(Nc1ccc2[nH]nc(-c3ccncc3)c2c1)[C@@H]1CCN(CC(=O)N2CCN(c3ccc(-c4ncccn4)cc3)CC2)C1 [SCH772984, (3R)-1-[2-oxo-2-[4-(4-pyrimidin-2-ylphenyl)piperazin-1-yl]ethyl]-N-(3-pyridin-4-yl-1H-indazol-5-yl)pyrrolidine-3-carboxamide]
- phagocytic activity against cancer cells ([1]; FIG. 5): 90%

Molecule: COc1cc(Nc2c(C#N)cnc3cc(OCCCN4CCN(C)CC4)c(OC)cc23)c(Cl)cc1Cl [bosutinib, 4-(2,4-dichloro-5-methoxyanilino)-6-methoxy-7-[3-(4-methylpiperazin-1-yl)propoxy]quinoline-3-carbonitrile]
- phagocytic activity against cancer cells ([1]; FIG. 3): 82%

Molecule: O=c1[nH]cc(F)c(=O)[nH]1 [fluorouracil]
- phagocytic activity against cancer cells ([2]; cells cultured 2 days with drug at 0.4 μg/mL): 16%

Molecule: CCc1c2c(nc3ccc(OC(=O)N4CCC(N5CCCCC5)CC4)cc13)-c1cc3c(c(=O)n1C2)COC(=O)[C@]3(O)CC [irinotecan]
- phagocytic activity against cancer cells ([2]; cells cultured 2 days with drug at 15 μM): 14%

B1: monoclonal antibody against CAPRIN-1 described in WO2013/125630: mouse monoclonal antibody; heavy-chain variable region SEQ ID NO: 114, light-chain variable region SEQ ID NO: 115; parent of humanized … (antibody, listed as Mus musculus, V domains shown)
VH: GPELVKPGASVKMSCKASGYTFTSYVMHWVKQKPGQGLEWIGYINPYNDGTKYNEKFKGKATLTSDKSSSTAYMELSSLTSEDSAVYYCARRYYYGSSGGYFDVWAQDHVRT
VL: DVQITQSPSYLAASPGETITINCRASKSISKYLAWYQEKPGKTNKLLIYSGSTLQSGIPSRFSGSGSGTDFTLTISSLEPEDFAMYYCQQHNEYPYTFGGGTKLEIKR
notes: mouse monoclonal antibody; parent of humanized antibody #1
- specific reactivity to CAPRIN-1 protein [3]: exhibiting reactivity
